Measurements: ChEMBL document CHEMBL5727116, “Pyrazole compounds and methods of making and using same” (2019)

Columns and labels:
[1] = target: T1, Fatty-acid amide hydrolase 1 (Mus musculus, UniProt O08914); test: (§1) In Vitro Competitive Activity-Based Protein Profiling: Proteomes (mouse brain membrane fraction or cell lysates for mouse assays; human prefrontal cortex or cell membrane fractions for human assays) (50 μL, 1.0 mg/mL total protein concentration) were preincubated with varying concentrations of inhibitors at 37° C. After 30 min, FP—Rh or HT-01 (1.0 μL, 50 μM in DMSO) was added and the mixture was incubated for another 30 min at 37° C. Reactions were quenched with SDS loading buffer (15 μL-4×) and run on SDS-PAGE. Following gel imaging, serine hydrolase activity was determined by measuring fluorescent intensity of gel bands corresponding to MAGL and FAAH using ImageJ 1.43u software.Preparation of Mouse Brain Proteomes from Inhibitor Treated Mice.Inhibitors were administered to wild-type C57Bl/6J by oral gavage in a vehicle of polyethylene glycol. Each animal was sacrificed 4 h following administration and brain proteomes were prepared and analyzed according to previously established methods (See Niphakis, M. J., et al. (2011) ACS Chem. Neurosci. and Long, J. Z., et al. Nat. Chem. Biol. 5:37-44).
T1 sequence (O08914 whole entry): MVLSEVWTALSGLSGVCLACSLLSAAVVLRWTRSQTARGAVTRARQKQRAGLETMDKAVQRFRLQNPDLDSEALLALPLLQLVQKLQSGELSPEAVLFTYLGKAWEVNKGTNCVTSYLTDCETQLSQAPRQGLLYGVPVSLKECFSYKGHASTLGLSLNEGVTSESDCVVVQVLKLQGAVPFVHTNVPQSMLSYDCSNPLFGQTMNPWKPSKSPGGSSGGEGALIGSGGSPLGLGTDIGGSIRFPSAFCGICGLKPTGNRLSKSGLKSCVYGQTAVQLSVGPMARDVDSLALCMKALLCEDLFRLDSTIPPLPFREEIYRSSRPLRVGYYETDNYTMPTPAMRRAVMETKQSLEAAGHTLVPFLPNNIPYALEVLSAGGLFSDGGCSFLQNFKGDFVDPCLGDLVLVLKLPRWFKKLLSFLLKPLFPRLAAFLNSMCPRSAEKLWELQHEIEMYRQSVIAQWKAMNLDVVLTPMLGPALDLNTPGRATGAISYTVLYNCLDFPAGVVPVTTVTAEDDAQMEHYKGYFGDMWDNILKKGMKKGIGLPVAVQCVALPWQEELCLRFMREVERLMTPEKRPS

Monoglyceride lipase = target: T2, Monoglyceride lipase (Mus musculus, UniProt O35678); test: as §1
T2 sequence (O35678 whole entry): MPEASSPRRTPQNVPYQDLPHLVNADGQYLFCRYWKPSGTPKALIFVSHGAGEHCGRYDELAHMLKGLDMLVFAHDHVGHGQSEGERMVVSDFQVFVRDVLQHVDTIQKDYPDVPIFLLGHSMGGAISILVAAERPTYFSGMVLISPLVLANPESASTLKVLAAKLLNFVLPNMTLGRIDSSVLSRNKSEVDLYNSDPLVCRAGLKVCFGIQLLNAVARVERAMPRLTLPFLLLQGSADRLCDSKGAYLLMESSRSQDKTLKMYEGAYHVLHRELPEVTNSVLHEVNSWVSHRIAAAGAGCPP

IC50 [1] [nM]	IC50 (Monoglyceride lipase) [nM]	Compound
< 100	–	CC(=O)N(C)c1cnn(C(=O)N2CC3CN(Cc4cccc(Oc5ccccn5)c4)CC3C2)c1 (stereo not given)
–	< 100	CC(=O)N(C)c1cnn(C(=O)N2CCN(Cc3ccc(C(F)(F)F)cc3)CC2)c1
–	< 100	CC(=O)N(C)c1cnn(C(=O)N2CCN(Cc3ccc(Cl)c(Cl)c3)CC2)c1
< 100	< 100	CC(=O)N(C)c1cnn(C(=O)N2CC3CN(Cc4cc(Cl)cc(N5CCC6(CCOCC6)C5)c4)CC3C2)c1 (stereo not given)
